{
  "source": "patent US12161117B2",
  "about": "“Agrochemical combinations” (UPL LTD, priority 2018, dated 2024)",
  "key": {"Fruit and shoot borer": {"system": "Fruit and shoot borer", "experiment": "Trial of the combination Chlorantraniliprole+Novaluron+Bifenthrin on Fruit and shoot borer in paddy", "format": "in vivo", "conditions": "solo", "description": "Trials were conducted to test the efficacy of the combination of Chlorantraniliprole+Novaluron+Bifenthrin on Fruit and shoot borer in paddy: […]"}, "white ears": {"system": "white ears", "experiment": "Trial of the combination Chlorantraniliprole+Novaluron+Bifenthrin on white ears in paddy", "format": "in vivo", "conditions": "solo", "description": "Trials were conducted to test the efficacy of the combination of Chlorantraniliprole+Novaluron+Bifenthrin on white ears in paddy: […]"}},
  "data": [
    {"smiles": "Cc1c(COC(=O)[C@@H]2[C@H](/C=C(\\Cl)C(F)(F)F)C2(C)C)cccc1-c1ccccc1", "note": "(racemic) [Bifenthrin]", "values": [
      {"measurement": "Percent control Fruit and shoot borer", "setting": "Fruit and shoot borer; 3 DAA, dose 60 gm ai/ha", "result": 54.3, "unit": "%"},
      {"measurement": "Percent control Fruit and shoot borer", "setting": "Fruit and shoot borer; 7 DAA, dose 60 gm ai/ha", "result": 71, "unit": "%"},
      {"measurement": "Percent control Fruit and shoot borer", "setting": "Fruit and shoot borer; 10 DAA, dose 60 gm ai/ha", "result": 64.3, "unit": "%"},
      {"measurement": "Percent control Fruit and shoot borer", "setting": "Fruit and shoot borer; 14 DAA, dose 60 gm ai/ha", "result": 58.3, "unit": "%"},
      {"measurement": "Percent control Fruit and shoot borer", "setting": "white ears; 3 DAA, dose 60 gm ai/ha", "result": 80, "unit": "%"},
      {"measurement": "Percent control Fruit and shoot borer", "setting": "white ears; 7 DAA, dose 60 gm ai/ha", "result": 79, "unit": "%"},
      {"measurement": "Percent control Fruit and shoot borer", "setting": "white ears; 10 DAA, dose 60 gm ai/ha", "result": 55, "unit": "%"},
      {"measurement": "Percent control Fruit and shoot borer", "setting": "white ears; 14 DAA, dose 60 gm ai/ha", "result": 38, "unit": "%"}
    ]},
    {"smiles": "O=C(NC(=O)c1c(F)cccc1F)Nc1ccc(OC(F)(F)C(F)OC(F)(F)F)c(Cl)c1", "note": "(stereo not drawn) [Novaluron]", "values": [
      {"measurement": "Percent control Fruit and shoot borer", "setting": "Fruit and shoot borer; 3 DAA, dose 100 gm ai/ha", "result": 64.3, "unit": "%"},
      {"measurement": "Percent control Fruit and shoot borer", "setting": "Fruit and shoot borer; 7 DAA, dose 100 gm ai/ha", "result": 75, "unit": "%"},
      {"measurement": "Percent control Fruit and shoot borer", "setting": "Fruit and shoot borer; 10 DAA, dose 100 gm ai/ha", "result": 68.3, "unit": "%"},
      {"measurement": "Percent control Fruit and shoot borer", "setting": "Fruit and shoot borer; 14 DAA, dose 100 gm ai/ha", "result": 64.3, "unit": "%"},
      {"measurement": "Percent control Fruit and shoot borer", "setting": "white ears; 3 DAA, dose 100 gm ai/ha", "result": 5, "unit": "%"},
      {"measurement": "Percent control Fruit and shoot borer", "setting": "white ears; 7 DAA, dose 100 gm ai/ha", "result": 6, "unit": "%"},
      {"measurement": "Percent control Fruit and shoot borer", "setting": "white ears; 10 DAA, dose 100 gm ai/ha", "result": 5.9, "unit": "%"},
      {"measurement": "Percent control Fruit and shoot borer", "setting": "white ears; 14 DAA, dose 100 gm ai/ha", "result": 4.9, "unit": "%"}
    ]},
    {"smiles": "CNC(=O)c1cc(Cl)cc(C)c1NC(=O)c1cc(Br)nn1-c1ncccc1Cl", "note": "[Chlorantraniliprole, 3-bromo-4′-chloro-1-(3-chloro-2-pyridyl)-2′-methyl-6′-(methylcarbamoyl)pyrazole-5-carboxanilide]", "values": [
      {"measurement": "Percent control Fruit and shoot borer", "setting": "Fruit and shoot borer; 3 DAA, dose 30 gm ai/ha", "result": 79.3, "unit": "%"},
      {"measurement": "Percent control Fruit and shoot borer", "setting": "Fruit and shoot borer; 7 DAA, dose 30 gm ai/ha", "result": 90, "unit": "%"},
      {"measurement": "Percent control Fruit and shoot borer", "setting": "Fruit and shoot borer; 10 DAA, dose 30 gm ai/ha", "result": 88.3, "unit": "%"},
      {"measurement": "Percent control Fruit and shoot borer", "setting": "Fruit and shoot borer; 14 DAA, dose 30 gm ai/ha", "result": 78.4, "unit": "%"},
      {"measurement": "Percent control Fruit and shoot borer", "setting": "white ears; 3 DAA, dose 30 gm ai/ha", "result": 5, "unit": "%"},
      {"measurement": "Percent control Fruit and shoot borer", "setting": "white ears; 7 DAA, dose 30 gm ai/ha", "result": 6, "unit": "%"},
      {"measurement": "Percent control Fruit and shoot borer", "setting": "white ears; 10 DAA, dose 30 gm ai/ha", "result": 5.9, "unit": "%"},
      {"measurement": "Percent control Fruit and shoot borer", "setting": "white ears; 14 DAA, dose 30 gm ai/ha", "result": 4.9, "unit": "%"}
    ]}
  ]
}
